From patent US8193377B2, “(−)-epigallocatechin gallate derivatives for inhibiting proteasome” (The Hong Kong Polytechnic University, priority 2004, dated 2012)
Read-outs that look alike come from different tables or passages of the source.

Experiments:
[1] = molecular target: T1, purified rabbit 20s proteasome (Oryctolagus cuniculus, UniProt G1T4Q9); assay: Inhibition of chymotrypsin-like activity of purified 20S proteasome; format: biochemical
T1 construct: purchased Boston Biochem (Cambridge, Mass.)
T1 sequence (G1T4Q9 1-263): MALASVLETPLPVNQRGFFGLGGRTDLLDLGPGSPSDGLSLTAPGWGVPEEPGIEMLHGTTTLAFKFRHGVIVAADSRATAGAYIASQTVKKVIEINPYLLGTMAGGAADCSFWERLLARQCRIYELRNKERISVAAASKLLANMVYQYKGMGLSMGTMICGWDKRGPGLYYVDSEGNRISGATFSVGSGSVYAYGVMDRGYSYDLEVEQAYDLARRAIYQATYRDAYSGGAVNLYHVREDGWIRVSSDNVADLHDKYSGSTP
Procedure: Measurement of the chyrnotrypsin-like activity of the 20s proteasome was performed by incubating 0.5 μg of purified rabbit 20s proteasome with 40 μM fluorogenic peptide substrate, Suc-Leu-Leu-Val-Tyr-AMC, with or without various concentrations of natural and synthetic tea polyphenols as described previously (Nam S et. al.).
In order to test this hypothesis, proteasome activity was tested both in vitro and in intact Jurkat T cells with either 1 or (−)-EGCG (as a positive control). First, 1 and commercial (−)-EGCG were dissolved in DMSO and their effects on the chymotrypsin-like activity of purified 20S proteasomes were measured. […] In contrast, (−)-EGCG at 10 μM inhibited 80-90% of the proteasomal chymotrypsin-like activity. Therefore, as predicted, 1 outside of a cellular system is not a proteasome inhibitor.
Up to 25 μM of all protected and unprotected compounds were incubated with a purified 20s proteasome and a fluorogenic substrate for chyrnotrypsin activity for 30 min. The half-maximal inhibitory concentration or IC50 was then determined. […] This is consistent with the results above.

[2] = test system: ubiquitinated proteins, Bax, p27, IκBα in Jurkat T cells; assay: Western blot for ubiquitinated proteins and proteasome targets (Bax, p27, IκBα) in Jurkat T cells; format: cell-based, human; conditions: 25 μM, up to 8 h
Procedure: Whole cells extracts were prepared as described previously (An B, Goldfarb R H, Siman R, Dou Q P. Novel dipeptidyl proteasome inhibitors overcome Bc1-2 protective function and selectively accumulate the cyclin-dependent kinase inhibitor p27 and induce apoptosis in transformed, but not normal, human fibroblasts. Cell Death Differ 1998; 5: 1062-75.). Analysis of Bax, IKBa, p27, PAW, and ubiquitinated protein expression were performed using monoclonal or polyclonal antibodies according to previously reported protocols (An B et. al.).
To determine what effects the synthetic tea analogs had on the proteasome in vivo, Jurkat cells were treated with 25 μM of each synthetic compound for either 4 or 24 h, with (−)-EGCG as a control (FIGS. 9A and 9B). […] This is consistent with the idea that protected analogs are potent inhibitors of the proteasome at an earlier time point and that after 24 h of treatment the ubiquitinated proteins are being depleted by deubiquitinating enzymes. […] The putative ubiquitinated IκBα band is still found in cells treated with 2a, 3a, and 4a (FIG. 9B, Lanes 9, 5, 7). The presumed ubiquinated IκBα band is now absent in the 24 h treatment, possibly due to deubiquitination (FIG. 9B). Actin was used as a loading control in this experiment.
The pro-apoptotic protein Bax and the cyclin-dependent kinase inhibitor p27 are natural proteasome targets. If the peracetate-protected polyphenols inhibit the intact proteasome activity, we would expect accumulation of Bax and p27 in these cells. To test this idea, Jurkat T cells were treated with both protected and unprotected compounds and lysates were analyzed by Western blot using specific antibodies to Bax and p27 (FIG. 15). After 4 h of treatment, the peracetate-protected analogs 24* and 19*, but not their unprotected analogs, were able to increase accumulation of both Bax (by 3- and 2.5-fold, respectively) and p27 (6- and 11-fold, respectively) (FIG. 15A). After 24 h treatment, Bax levels were increased in cells treated with all of the peracetate-protected compounds (13-, 12-, 40- and 36-fold, respectively, by 24*, 19*, 21* and 23*).

[3] = molecular target: 20S prokaryotic proteasome (UniProt Q9P992); conditions: Table 2, Reference a (Smith et al. 2004), cited from earlier work
Sequence of 20S prokaryotic proteasome (Q9P992 whole entry): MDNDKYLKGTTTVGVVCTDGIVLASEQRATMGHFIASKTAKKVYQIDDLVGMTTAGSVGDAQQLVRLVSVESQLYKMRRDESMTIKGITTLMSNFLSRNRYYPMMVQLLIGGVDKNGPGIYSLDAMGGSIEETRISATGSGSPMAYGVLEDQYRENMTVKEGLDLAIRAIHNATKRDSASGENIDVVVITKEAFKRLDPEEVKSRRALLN

[4] = molecular target: 20S prokaryotic proteasome (UniProt Q9P992); assay: Table 2: effects of tea polyphenols on 20S prokaryotic proteasome activities; format: biochemical; conditions: Table 2, This work
Procedure: To further examine the effects of B-ring —OH group deletion on proteasome-inhibitory and cell death-inducing abilities, we synthesized several novel EGCG analogs with eliminated —OH groups on the B-ring as well as their putative prodrugs, the peracetate-protected counterparts. By using a purified 20S proteasome and a chymotrypsin-like fluorogenic substrate, the proteasome-inhibitory effects of the following unprotected polyphenol analogs are determined: […]

[5] = molecular target: T2, proteasomal chymotrypsin-like activity in Jurkat T cells (Homo sapiens, UniProt P28074); assay: Proteasomal chymotrypsin-like activity in intact Jurkat T cells / their lysates; format: cell-based; conditions: 25 μM, 4 and 24 h
T2 construct: measurement of the proteasomal chymotrypsin-like activity in the prepared lysates; endogenous in cells; host or cells: Jurkat T cells (human leukemia)
T2 sequence (P28074 60-263): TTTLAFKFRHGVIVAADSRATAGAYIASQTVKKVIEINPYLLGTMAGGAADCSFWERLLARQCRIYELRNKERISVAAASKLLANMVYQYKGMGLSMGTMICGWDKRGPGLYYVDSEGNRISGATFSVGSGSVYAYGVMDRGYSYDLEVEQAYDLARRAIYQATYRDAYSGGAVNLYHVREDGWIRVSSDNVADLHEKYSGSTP
Procedure: VA-13 or WI-38 cells were grown in 24 well plates (2 ml/well) to 70-80% confluency, followed by 24 h treatment with […] (−)-EGCG, 2, or 2a. […] Suc-Leu-Leu-Val-Tyr-AMC substrate was then added for 2.5 h at 37° C. and the chyrnotrypsin-like activity was measured as described above. Alternatively, cells were treated with each compound at 25 μM for 4 or 24 h, and harvested and lysed. Suc-Leu-Leu-Val-Tyr-AMC (40 μM) was then incubated with the prepared cell lysates for 2.5 h and the chymotrypsin-like activity was measured as described above.
If 1 converts to (−)-EGCG inside the cells, proteasome inhibition in vivo should be detected. To examine this possibility, human Jurkat cells was treated with 25 μM of 1 or (−)-EGCG for 12 or 24 h, followed by measurement of proteasome activity by using a chymotrypsin-like specific fluorogenic substrate in intact cells (FIG. 6a) or Western blot for ubiquinated proteins (FIG. 6b). […] To analyze the intracellular level of polyubiquitinated proteins, cells were lysed after 12 hours incubation and subjected to Western blotting. […] It is possible that the amount of EGCG generated from 1, and thus its biological activity inside the cells depends on a combination of factors: the relative permeability of 1 into the cells, the amount of esterase enzymes and the amount of anti-oxidants that may be present in the cells at any time.
To determine whether the unprotected and protected polyphenol analogs could inhibit the proteasomal activity in intact cells, leukemia Jurkat T cells were treated with each compound at 25 μM for 4 and 24 h, followed by collection of cell pellets and measurement of the proteasomal chymotrypsin-like activity in the prepared lysates.

[6] = up to 25 μM, 30 min incubation, read-out: IC50
[7] = Suc-Leu-Leu-Val-Tyr-AMC, 2 h incubation, Table 1, read-out: IC50 (μM), unprotected

Structure (SMILES): O=C(O[C@@H]1Cc2c(O)cc(O)cc2O[C@H]1c1cc(O)c(O)c(O)c1)c1ccc(O)cc1 (relative stereo) [Compound 3, (2S*,3R*)-trans-5,7-Bis(hydroxy)-2-[3,4,5-tris(hydroxy)phenyl]chroman-3-yl 4-(hydroxy)benzoate]
- IC50 [1, 6]: 14 to 15 µM

Structure (SMILES): O=C(O[C@@H]1Cc2c(O)cc(O)cc2O[C@H]1c1cc(O)c(O)c(O)c1)c1cc(O)cc(O)c1 (relative stereo) [Compound 4, (2S*,3R*)-trans-5,7-Bis(hydroxy)-2-[3,4,5-tris(hydroxy)phenyl]chroman-3-yl 3,5-bis(hydroxy)benzoate]
- IC50 [1, 6]: 14 to 15 µM
- time course of ubiquitinated protein accumulation [2]: highest expression after 8 hours

Structure (SMILES): O=C(OC1Cc2c(O)cc(O)cc2OC1c1ccc(O)c(O)c1)c1cc(O)c(O)c(O)c1 (single isomer, unassigned; (+)) [(+)-ECG]
- IC50 ([3]; read-out: IC50): 0.73 µM

Structure (SMILES): O=C(OC1Cc2c(O)cc(O)cc2OC1c1ccc(O)c(O)c1)c1cc(O)c(O)c(O)c1 (single isomer, unassigned; (-)) [(−)-CG]
- IC50 [3]: 0.75 µM

Structure (SMILES): O=C(O[C@H]1Cc2c(O)cc(O)c(Cc3ccccc3)c2O[C@H]1c1ccc(O)c(O)c1)c1cc(O)c(O)c(O)c1 [#1, (+)-(2S,3S)-5,7-dihydroxy-8-benzyl-2-[3,4-dihydroxy-phenyl]chroman-3-yl 3,4,5-trihydroxybenzoate]
- IC50 [4]: 0.39 µM

Structure (SMILES): O=C(OC1Cc2c(O)cc(O)cc2OC1c1ccc(O)cc1)c1cc(O)c(O)c(O)c1 (stereo not shown) [#m]
- IC50 [4]: 4.56 µM

Structure (SMILES): O=C(O[C@H]1Cc2c(O)cc(O)cc2O[C@@H]1c1ccc(O)c(O)c1)c1cc(O)c(O)c(O)c1 [(+)-CG, (+)-(2R,3S)-5,7-dihydroxy-2-(3,4-dihydroxyphenyl)chroman-3-yl 3,4,5-trihydroxybenzoate]
- IC50 [3]: 0.73 µM

Structure (SMILES): O=C(O[C@@H]1Cc2c(O)cc(O)cc2O[C@@H]1c1ccc(O)c(O)c1)c1cc(O)c(O)c(O)c1 [(−)-ECG, (−)-epicatechin-3-gallate]
- IC50 [3]: 0.58 µM

Structure (SMILES): O=C(O[C@@H]1Cc2c(O)cc(O)cc2O[C@@H]1c1ccc(O)cc1)c1ccc(O)cc1 [Compound 10, (−)-(2R,3R)-5,7-dihydroxy-2-(4-hydroxyphenyl)chroman-3-yl 4-hydroxybenzoate]
- IC50 [1, 7]: 8.51 µM
- proteasome inhibition in intact Jurkat T cells [5]: moderate potency

Structure (SMILES): O=C(O[C@H]1Cc2c(O)cc(O)cc2O[C@@H]1c1ccc(O)c(O)c1)c1ccc(O)cc1 [Compound 11, (+)-(2R,3S)-5,7-dihydroxy-2-(3,4-dihydroxyphenyl)chroman-3-yl 4-hydroxybenzoate]
- IC50 [1, 7]: 7.7 µM

Structure (SMILES): O=C(O[C@@H]1Cc2c(O)cc(O)cc2O[C@@H]1c1ccc(O)c(O)c1)c1ccc(O)cc1 [Compound 12, (−)-(2R,3R)-5,7-dihydroxy-2-(3,4-dihydroxyphenyl)chroman-3-yl 4-hydroxybenzoate]
- IC50 [1, 7]: 5.99 µM

Structure (SMILES): O=C(O[C@H]1Cc2c(O)cc(O)cc2O[C@H]1c1ccccc1)c1cc(O)c(O)c(O)c1 [Compound 15, (+)-(2S,3S)-5,7-dihydroxy-2-phenylchroman-3-yl 3,4,5-trihydroxybenzoate]
- IC50 [4]: 4.56 µM
- proteasome inhibition in intact Jurkat T cells [5]: moderate potency

Structure (SMILES): O=C(OC1Cc2c(O)cc(O)c(Cc3ccccc3)c2OC1c1ccc(O)c(O)c1)c1cc(O)c(O)c(O)c1 (stereo not shown) [Compound 16]
- IC50 [1, 7]: 0.59 µM
